Source: BindingDB's records for PubMed 35653695 (Ecole Polytechnique F?d?rale de Lausanne …, 2022)
pKi: −log10 of the molar value.

Assay: Inhibition of mouse KLK5 assessed as inhibition constant using Boc-VPR-AMC as fluorogenic substrate incubated for 30 mins by fluorescence plate reader assay

Compound: CCCCCCCCCCCCCCCC(=O)NCCCC[C@H](NC(=O)[C@H](CCC(=O)O)NC(=O)[C@H](Cc1ccc(O)cc1)NC(=O)[C@H](CCC(=O)O)NC(=O)COCCOCCNC(=O)c1ccc(-c2c3ccc(=O)cc-3oc3cc(O)ccc23)c(C(=O)O)c1)C(=O)N[C@@H](CCC(=O)O)C(=O)N[C@@H](Cc1ccc(O)cc1)C(=O)N[C@@H](CCC(=O)O)C(=O)NCCOCCOCC(=O)NCCCC[C@H](NC(=O)CNC(=O)[C@@H]1CSCC(=O)CSC[C@H](NC(=O)CN)C(=O)N[C@@H]([C@@H](C)O)C(=O)N[C@@H](CCCNC(=N)N)C(=O)N[C@@H](CCC(N)=O)C(=O)N[C@@H](Cc2ccc(O)cc2)C(=O)N2CCC[C@H]2C(=O)N1)C(=O)NCC(N)=O
- pKi: 8.85
